# What was measured:
# [1] = system: Wild type C57BL/6J mice; assay: LPS model of septic shock, survival; format: in vivo, mouse; settings: FTOi 20 mg/kg i.p. 16 hours before, 10 mg/kg LPS challenge; log-rank p<0.05 vs vehicle
# Protocol: To induced septic shock model, male or female C57BL/6 mice (6 to 10 weeks old) were primed with 10 mg/kg poly(I:C) via intraperitoneal injection. 6 hours later, primed mice were injected with 10 mg/kg LPS and monitored three time daily for a total 5 days. For FTO inhibitor treatment, Wild type C57BL/6J mice were pretreated with 20 mg/kg FB23-2 for 16 hours before sepsis induction. Next day, 20 mg/kg FB23-2 together with 10 mg/kg poly(I:C) were intraperitoneally injected, following with LPS challenge at 6 hours after poly(I:C) priming.
# [2] = system: mouse BMDMs; assay: VEGFA release in mouse BMDMs (ELISA); format: cell-based; settings: FTOi 20 uM 12 hours, with or without LPS 250 ng/ml 6 hours, supernatant ELISA
# Protocol: Primary WT or mutant mouse bone marrow derived macrophages (BMDMs) were isolated as previously described (4). BMDMs were cultured in IMDM (Gibco) basal medium containing 10% fetal bovine serum (FBS), 30% L929 supernatants, nonessential amino acids, sodium pyruvate, 2-mercaptoethanol, and antibiotics. THP-1 cells were cultured in RPMI 1640 medium with 10% FBS and antibiotics. Human RPE cells were isolated as previously described and cultured in DMEM medium with 10% FBS and antibiotics. All cells were maintained at 37° C. in a 5% CO2 environment.
# The RPE-choroid complex was isolated from mouse eyes on day 3 after laser injury and treatment with FTO inhibitor or vehicle. Eye tissues were lysed by sonication with immunoprecipitation assay (RIPA) buffer (Sigma-Aldrich, R0278, USA) containing protease inhibitor (Sigma-Aldrich, 11836170001, USA), on ice for 15 minutes. The lysate was centrifuged at 20,000×g for 15 minutes at 4° C., and total protein in the lysates was quantified using the Thermo Scientific™ Pierce™ BCA™ Protein Assay (Fisher Scientific, PI23225, USA). VEGFA protein levels in the supernatants were measured by VEGF DuoSet ELISA (R&D Systems, DY493, USA), following the manufacturer's instructions. Mouse BMDMs or human THP-1 cells (5×10^5 cells per well) were plated into six-well plates in complete medium and allowed to adhere overnight. Cells were then incubated for 24 hours in the absence or presence of various doses of FTO inhibitor or METTL3 inhibitors (STM2457, Selleck Chemicals). […] The siRNAs (siFto: 5′-P.G.A.G.G.A.U.C.C.A.A.G.G.C.A.A.A.G.A.U.dT.dT 3′ (SEQ ID NO: 38); siCtrl: 5′-P.U.A.A.G.G.C.U.A.U.G.A.A.G.A.G.A.U.dT.dT 3′; SEQ ID NO: 39), were designed and synthesized by GE Healthcare Dharmacon, were transfected twice with BMDMs by using DharmaFECT 4 Transfection Reagent (Dharmacon, T-2004, USA). VEGFA levels in the supernatants were measured by mouse or human VEGF DuoSet ELISA (R&D Systems, DY493 or DY293B, USA), following the manufacturer's instructions.
# [3] = In vivo retinal toxicity; settings: FTO inhibition
smiles,measurement,setting,value
Cc1noc(C)c1-c1cc(Cl)c(Nc2ccccc2C(=O)NO)c(Cl)c1 [FB23-2],Survival (mice death),[1],rescues the mice death
same,VEGFA release,[2],inhibits VEGFA release
same,VEGFA release,[2]; listed as FTO inhibitor,reduction in mouse VEGFA release
same,In vivo retinal toxicity,[3],did not observe in vivo retinal toxicity
